This is an account of results in patent publication US8003632B2, “Cholinesterase inhibitors for treating inflammation” (priority 2004, dated 2011).

Each structure is given as a SMILES string. Counter-ions that a name gives are not always drawn. Like-named read-outs stand apart in the source and are kept apart here.

Experiment [1] has as its system TNF-α. Put plainly: Serum TNF-α in endotoxemic rats after intracerebroventricular administration. The class given is in vivo. As to conditions: ICV 1 hour before endotoxemia, doses tested 1-1000 ng/kg, dose of the result not stated. On the procedure:
Endotoxemia was induced in rats via intraperitoneal (IP) injection of endotoxin (lipopolysaccharide, LPS; E. coli 0111:B4, Sigma; 10 mg/ml in PBS) (10-30 mg/kg, IP). Rats were anesthetized with ketamine (10%) in xylazine and placed in a stereotatic head frame (Stoelting Co.). The incisor bar was adjusted until the plane defined by the lambda and bregma was parallel to the base plate. The needle of a Hamilton syringe ([…]) was stereotactically guided into lateral ventricle (0.8 mm posterior to bregma, 1.5 mm lateral to midline, 3.5 mm below the dura). Galantamine at 1, 10, 100 and 1000 ng/kg was dissolved in sterile endotoxin-free saline and administered over 2 min. Vehicle control (saline) was also administered over 2 min. The location of intracerebroventricular (i.c.v.) injections was confirmed by histological examination of the brain after the experiment. TNF-α was measured as described above.

The subject of experiment [2] is murine model of lethal endotoxemia. The class given is in vivo, mice. As to conditions: for mice survived: 14 days after endotoxin, vehicle none survived.
For experiment [3], the system named is TNF. Briefly: Serum TNF (ELISA) in endotoxemic mice. The class given is in vivo, BALB/c mice. How it is done:
Male BALB/c mice were injected intraperitoneally with 6 mg/kg endotoxin (lipopolysaccharide, E. coli 0111:B4, Sigma, St. Louis, Mo.; 10 mg/ml in pyrogen-free saline), which had been sonicated for 30 min. Galantamine (CalBioChem, San Diego, Calif.) at doses of 0.1, 1, 2 or 4 mg/kg or vehicle control were injected intraperitoneally one hour before endotoxin administration in anesthetized animals. One and half hours after endotoxin exposure, blood was harvested for TNF measurement.
Blood was centrifuged at 5,000 rpm (1,500×g) for 15 min and the supernatants were collected for TNF determination. Serum and supernatants were used for TNF protein analysis by ELISA (R&D Systems Inc., Minneapolis, Minn.) according to the manufacturer's instructions.
On the technique in general: In an ELISA, binding on a coated surface is turned into a signal by an enzyme label.

The subject of experiment [4] is TNF-α. Put plainly: Serum TNF-α (ELISA) in septic mice after cecal ligation and puncture. The format is in vivo, BALB/c mice. As to conditions: for decrease of serum level TNF-α compared to vehicle control: blood 6 h after treatment. On the procedure:
(§1) Cecal Ligation and Puncture (CLP) was performed as described in Fink and Heard, J. of Surg. Res. 49:186-196 (1990), Wichman et al., Crit. Care Med. 26:2078-2086 (1998) and Remick et al., Shock 4:89-95 (1995). Briefly, BALB/c mice were anesthetized with 100 mg/kg ketamine (Fort Dodge, Fort Dodge, Iowa) and 10 mg/kg of xylazine (Bohringer Ingelheim, St. Joseph, Mo.) intramuscularly. A midline incision was performed, and the cecum was isolated. A 6-0 prolene suture ligature was placed at a level 5.0 mm from the cecal tip away from the ileocecal valve.
The ligated cecal stump was then punctured once with a 22-gauge needle, and 2mm stool extruded. The cecum was then placed back into its normal intra-abdominal position. The abdomen was then closed with a running suture of 6-0 prolene in two layers, peritoneum and fascia separately to prevent leakage of fluid. All animals were resuscitated with a normal saline solution administered sub-cutaneously at 20 ml/kg of body weight. Each mouse received a subcutaneous injection of imipenem (0.5 mg/mouse) (Primaxin, Merck & Co., Inc., West Point, Pa.) 30 minutes after the surgery. Animals were then allowed to recuperate.
Twenty-four hours after surgery, mice were intraperitoneally administered either 0.01 mg/kg or 0.1 mg/kg Galantamine Hydrobromide (CalBioChem, San Diego, Calif.) or vehicle control (saline). Galantamine was prepared in saline to a final concentration of 10 mg/ml. Mice were euthanized 6 hours after treatment with Galantamine or vehicle control (30 hours after surgery) and blood was collected by cardiac puncture for TNF-α measurement. TNF-α was measured by ELISA (mouse ELISA kit from R&D Systems Inc., Minneapolis, Minn.).
Cecal ligation and puncture were performed as described above. Randomly selected mice were treated intraperitoneally with vehicle (saline, 200 ul) or tacrine (2.5 μg/kg or 0.25 μg/kg) twice daily for 3 days, starting 24 hours after surgery. Mice were monitored for survival twice daily for three weeks. […] TNF was measured by ELISA as discussed above. HMGB1 was measured in sera by Western blot as discussed above.

In experiment [5] the test system is murine CLP model of sepsis. The class given is in vivo, mice.
For experiment [6], the system named is HMGB1. Briefly: Serum HMGB1 (western blot) in septic mice after cecal ligation and puncture. The class given is in vivo. How it is done: as §1
The ligated cecal stump was then punctured once with a 22-gauge needle, and 2mm stool extruded. The cecum was then placed back into its normal intra-abdominal position. The abdomen was then closed with a running suture of 6-0 prolene in two layers, peritoneum and fascia separately to prevent leakage of fluid. […]
Cecal Ligation and Puncture (CLP) was performed as described above in Example 1. […] HMGB1 was measured by western blot using anti-HMG1 polyclonal antisera (U.S. Pat. No. 6,303,321) and standard methods. Band densities were measured using a Bio-Rad Imaging densitometer. […]
Cecal ligation and puncture were performed as described above. […] Mice were monitored for survival twice daily for three weeks. […] TNF was measured by ELISA as discussed above. HMGB1 was measured in sera by Western blot as discussed above.
On the technique in general: In western blotting, separated proteins are transferred to a membrane and probed.

The mark [7] stands for this setting: 2.5 μg/kg i.p. 24 h after CLP, blood 6 h later.

In the case of `COc1ccc2c3c1O[C@H]1C[C@@H](O)C=C[C@@]31CCN(C)C2` [Galantamine], the “decrease of serum level TNF-α compared to vehicle control” value in experiment [1] is given as “approximately 94%”; in experiment [4] (0.01 mg/kg i.p. 24 h after CLP), “approximately 50%”; in experiment [4] (0.1 mg/kg i.p. 24 h after CLP), ~80%. For the same molecule, the mice survived result was “about 75%” in experiment [2] (4 mg/kg i.p. six hours before endotoxin); 58% in experiment [5] (Day 6, 10 ug/kg i.p. twice a day for 3 days from 24 h after CLP, vehicle 37%); 90% in experiment [5] (Day 6, 100 ug/kg i.p. twice a day for 3 days from 24 h after CLP, vehicle 37%). The increase in survival result is “about 15%” in experiment [2] (day 14, 1 mg/kg i.p. 1 h before endotoxin) and ~25% in experiment [2] (day 14, 2 mg/kg i.p. 1 h before endotoxin). In addition, the “increase in survival compared with vehicle control” value in experiment [2] (day 14, 4 mg/kg i.p. 1 h before endotoxin) is “about 90%”. For the same molecule, the results for the “inhibition of serum TNF in endotoxemic mice” value in experiment [3] (2 mg/kg i.p. 1 h before endotoxin) and in experiment [3] (4 mg/kg i.p. 1 h before endotoxin) were “nearly two-fold inhibition” and “nearly three-fold inhibition”, respectively. In addition, the “effect on serum TNF in endotoxemic mice” value in experiment [3] (1, 2 and 4 mg/kg i.p. 1 h before endotoxin, blood 1.5 h after endotoxin) is “significantly inhibited serum TNF”. For the same molecule, the “survival from lethal sepsis” value in experiment [5] (10 μg/kg i.p. twice daily, 3 days, from 24 h after CLP, monitored 3 weeks, vehicle 37%) is 58%; in experiment [5] (100 μg/kg i.p. twice daily, 3 days, from 24 h after CLP, monitored 3 weeks, vehicle 37%, p<0.05), 90%. For the same molecule, the “decrease of serum level of HMGB1 compared to vehicle control” value in experiment [6] (0.1 mg/kg i.p. 24 h after CLP, blood 6 h after treatment) is listed as “about 50%”.
With `CN(C)C(=O)Oc1cccc([N+](C)(C)C)c1` [Neostigmine, Neostigmine methyl sulfate], in experiment [2] (0.1 mg/kg i.p. 30 minutes before endotoxin), the mice survived entry is reported as “about 50%”.
In the case of `Nc1c2c(nc3ccccc13)CCCC2` [Tacrine], the “effect on serum TNF in septic mice” value in experiment [4] (setting [7]) was “significantly reduced”. Also, in experiment [5] (mouse, in vivo, ip), the “effect on survival in mice with polymicrobial sepsis” value is “significantly improved survival”, the mice survived entry is given as “all” and the “survival from lethal sepsis” value stood at 100%. Also, the “effect on serum HMGB1 in septic mice” value in experiment [6] (setting [7]) is on record as “significantly reduced”.
